Experimental data reported in publication PMC5907308, “21st Brazilian Diabetes Society Congress” (Diabetology & Metabolic Syndrome, 2018).

How the values were obtained:
patient with T2DM [1] = test: Case report: endogenous hyperinsulinism in T2DM; format: in vivo, human; details: Acarbose prescribed 2 years ago; Verapamil 80 mg/day with dietary changes
Description: patient three diagnosed with type 2 diabetes (T2DM), using insulin for 22 years. Eight years ago, they started to present frequent episodes of symptomatic hypoglycemia, preferably in fasting periods. There was no cessation of the episodes even with the suspension of all insulin and antidiabetic drugs, which lead to an investigation with a prolonged fasting test (Table 1). The test confirmed endogenous hyperinsulinism (EH). […] They were then submitted to a selective arterial calcium stimulation test (SACST), whose results excluded insulinoma. […] Verapamil (80 mg/day) was initiated along with dietary changes, with good response.

[2] = system: patients after Roux-en-Y gastric bypass; test: Postprandial hyperinsulinemic hypoglycemia after RYGB, case series; format: in vivo, human
Protocol: Cases report: Case (1) A person developed postprandial hypoglycemic episodes 6 years after Roux-en-Y gastric bypass (RYGB). A mixed meal tolerance test (MMTT, 500 kcal, 20% protein, 20% fat and 60% carbohydrates) was performed, leading to symptomatic postprandial hyperinsulinemic hypoglycemia (PHH) with a nadir of 45 mg/dL at 120 min (insulin of 8 mU/L; C-peptide of 3.21 ng/mL). […] Cases 2 and 3). Two […] women presented hypoglycemia following meals 3 and 5 years after RYGB. MMTT (120 min): glycemia of 34 mg/dL, insulin of 17 mU/L and C-peptide of 6.23 ng/mL and, in the second one, glycemia of 52 mg/dL, insulin of 9 mU/L and C-peptide of 2.7 ng/mL. PT and MRCP were normal in both cases. […] Case 4). A person who underwent RYGB 1.5 years ago reported hypoglycemic episodes in the last 6 months. MMTT: glycemia of 26 mg/dL at 150 min, insulin of 34 mU/L and C-peptide of 6.03 ng/mL. […] They were submitted to distal pancreatectomy and symptoms disappeared after diazoxid and hydrochlorothiazide. Case 5). A person developed hypoglycemia 10 years after RYGB. […] MMTT: glycemia of 43 mg/dL at 120 min, insulin of 100 mU/L and C-peptide of 1.95 ng/mL. […] Antiinsulin antibodies were negative in all cases (Table 1).

[3] = system: Slc2a4/GLUT4 expression in 3T3-L1 cell line adipocytes; test: Slc2a4/GLUT4 expression in adipocytes (Western blotting, RTqPCR); format: cell-based; details: 24 h; E2 10 nM; PPT 10 nM; DPN 100 nM, in the presence or absence of E2
Protocol: It is known that estradiol (E2) via its receptors, ER-alpha and ER-beta, regulates the gene expression through direct binding to DNA, or through interactions with transcription factors, among them SP1 (Sp1 transcription factor). […] Thus, the role of SP1 in the expression of estradiol-mediated Slc2a4/GLUT4 in 3T3-L1 cell line adipocytes was evaluated in an attempt to understand the role of each estradiol receptors in this regulation. For this, the adipocytes were treated with 10 nM estradiol plus 0.05% DMSO (used to solubilize the ER agonists) for 24 h. Cells were also cultured with selective agonists of the different ER isoforms. To evaluate the ER-alpha, the PPT was used, in the concentration of 10 nM, with or without 10 nM of E2 (10E2 + PPT); to evaluate the ER-beta, the DPN was used in the concentration of 100 nM, with or without 10 nM of E2 (10E2 + DPN); always for 24 h. In the control group (0E2), cells were treated with only 0.05% DMSO (vehicle of agonists). The analyzes were: quantification of total GLUT4 protein, nuclear SP1 and nuclear ER-alpha/beta (Western blotting); expression of the Slc2a4 and Sp1 (RTqPCR) genes; and binding activity of the ERs to the SP1 binding site on the Slc2a4 promoter (electrophoretic mobilization, EMSA). Treatment with E2 increased the expression of Slc2a4/GLUT4. […] However, it was observed that both ERalpha and ER-beta activation increased the nuclear content of the transcription factor SP1, however, only the ER-alpha effect, especially isolated, seems to involve SP1 in the observed regulation.

[4] = system: hypothalamus of young rats; test: Chronic ICV treatment with the nitric oxide donor GSNO; format: in vivo, rat
T2DM patients = details: monotherapy; systematic review and mixed treatment meta-analyses comparison of RCTs; cited from earlier work
Description: Results: All DPP4 presented a statistically significant change of HbA1c from baseline compared to placebo (alogliptin − 0.797 (95%CI − 0.943 to − 0.651); linagliptin − 0.734 (CI − 0.88 to − 0.588); saxagliptin − 0.593 (CI − 0.811 to − 0.375); sitagliptin -0.788 (CI − 0.954 to − 0.622); vildagliptin −0.60 (CI − 0.80 to − 0.40)). Based on drug acquisition costs, alogliptin monotherapy presented the lowest annual treatment costs and the lowest cost for every 1% HbA1c reduction followed by saxagliptin, linagliptin, sitagliptin and vildagliptin (Table 1).

patients with T1DM = test: High dose vitamin D for 12 weeks, DKD/albuminuria pilot study; format: in vivo, human
Description: Methods: 22 patients received doses of 4000 and 10000 IU/day of cholecalciferol for 12 weeks according to patient’s previous VD levels. They were submitted to continuous glucose monitoring system (CGMS), 24-h ABPM and urine albumin-to-creatinine ratio (UACR) before and after VD supplementation.

patient with T2DM [5] = format: in vivo; details: systemic treatment
patient with DM2 and PAH = test: Vildagliptin in T2DM with pulmonary arterial hypertension, case report; format: in vivo, human
Description: The main etiology of pulmonary arterial hypertension (PAH) is idiopathic. In more than one-third of these cases, patients have criteria for metabolic syndrome. Alone, obesity, dyslipidemia and type 2 diabetes mellitus (T2DM) have a direct and indirect relationship in the pathophysiology of PAH. The presence of glucagon-like peptide-1 (GLP1) receptors in different organs of our body gives this incretin several pleiotropic effects, in addition to its already well established role in the treatment of obesity and T2DM. […] Considering this and using a weight-neutral incretin-based therapy, we opted for the use of a DPP4 inhibitor (vildagliptin 50 mg 2×/day) to increase GLP1 levels in a patient with DM2, hypertension, dyslipidemia, obesity grade I (BMI of 30.2 kg/m2) and PAH.

participants with T2DM = test: Vitamin D supplementation, randomized placebo-controlled trial, oxidative stress biomarkers; format: in vivo, human
Protocol: Methods: The participants (n = 31; age 46 ± 6.45 years; sex 21/10 female/male) with T2DM were enrolled in this study in two groups. One group received one capsule/week of vitamin D (50.000 U) or placebo for 90 days. At the beginning and after intervention, laboratory analyses (biochemical and OS markers) were performed. After fasting for 12 h, the subjects underwent the following laboratory blood analysis: glucose, lipid profile, uric acid, and C-reactive protein (CRP) which were evaluated by a biochemical autoanalyzer (Dimension Dade AR; Dade Behring), insulin and vitamin D were evaluated by MEIA (AxSYM, Abbott Laboratory, Abbott Park, IL, USA). Advanced oxidation protein products (AOPP) were determined in the plasma using the semiautomated method described by Witko-Sarsat. Analysis of plasma hydroperoxide concentrations was evaluated by two methods (tertbutyl hydroperoxide-initiated chemiluminescence and FOX assay). This study was conducted according to the principles of the Helsinki, and the study protocol was approved by the ethics committee of the University (CAAE: 41718014.9.0000.5231). Kruskal- Wallis with post hoc Dunn’test was performed to verify differences across intervention (placebo or vitamin D). Graph Pad Instat 3 version was used for evaluations.

[6] = system: patient with metastatic melanoma; test: Ipilimumab endocrinological side effects, case report; format: in vivo, human
Description: In the last couple of years, monoclonal antibodies have emerged as effective therapies for advanced neoplasms. […] CTLA-4 is expressed on the surface of T lymphocytes and transmits an inhibitory signal through its B7-1/2 linker. In blocking the CTLA-4, Ipilimumab promotes an enhancement of T cell activation against neoplasms. During the treatment, the activation of these cells can also be directed to different organs/tissues and affect the skin (dermatitis), gastrointestinal tract (colitis, pancreatitis, hepatitis), lung (pneumonitis) and endocrine glands (thyroiditis, hypophysitis, adrenalitis). […] The patient is a person previously healthy, with a diagnosis of metastatic melanoma. They were subjected to surgical removal of the skin lesion and infraclavicular lymph node, in addition to adjuvant treatment with Ipilimumab. They performed four cycles of this medication and evolved with asthenia, headache, abdominal pain and hyperglycemia, about 3 weeks after the last cycle. They were hospitalized and during the medical investigation the following were detected: low ACTH, low cortisol and hyperprolactinemia—characterizing hypophysitis. Furthermore, there was an elevation of amylase and lipase and hyperglycemia, with levels above 400 mg/dL, requiring insulinization. […]

patient with BSCL = test: Case report: metreleptin in Berardinelli-Seip congenital lipodystrophy; format: in vivo, human
Protocol: Case presentation: Two brothers with neonatal diagnosis of Berardinelli-Seip Congenital Lipodystrophy (BSCL), without cases of diabetes or similar diseases in their family. Clinically, both present muscular hypertrophy and acromegaloid features. […] Serum leptin 1 ng/mL (reference range: 2–18). […] Leptin 1.3 ng/mL. In 2016, HbA1C 7.8%, in use of Metformin 2 g/day, pioglitazone and vitamins E, A and D supplementation. […] By that time, Metreleptin was initiated at a 5 mg/day dose (0.07 mg/kg/day) and Metformin was maintained. After 3 months, the patient has HbA1C 5%, triglyceride level 70 mg/dL, TGO 42 U/L and TGP 32 U/L.

C[C@H]1O[C@H](O[C@H]2[C@H](O)[C@@H](O)[C@@H](O[C@H]3[C@H](O)[C@@H](O)C(O)O[C@@H]3CO)O[C@@H]2CO)[C@H](O)[C@@H](O)[C@@H]1N[C@H]1C=C(CO)[C@@H](O)[C@H](O)[C@H]1O (some centres unmarked) [Acarbose]
response of hypoglycemia episodes (patient with T2DM [1]): no improvement
clinical response of postprandial hypoglycemia ([2]; Case 5): controlled their symptoms
clinical response of postprandial hypoglycemia ([2]; Cases 2 and 3): Improvement occurred

N#CC(Cc1ccc(O)cc1)c1ccc(O)cc1 (centres unmarked) [DPN]
Slc2a4/GLUT4 expression [3]: decreased

C[C@]12CC[C@@H]3c4ccc(O)cc4CC[C@H]3[C@@H]1CC[C@@H]2O [E2, estradiol]
Slc2a4/GLUT4 expression [3]: increased

N[C@@H](CCC(=O)N[C@@H](CSN=O)C(=O)NCC(=O)O)C(=O)O [GSNO]
S-nitrosation of insulin signalling proteins in the hypothalamus [4]: enhance S-NO of IRβ and Akt
food intake and body weight [4]: increased food intake and body weight

CCCc1c(-c2ccc(O)cc2)nn(-c2ccc(O)cc2)c1-c1ccc(O)cc1 [PPT]
Slc2a4/GLUT4 expression [3]: increase

N[C@@H](CC(=O)N1CCn2c(nnc2C(F)(F)F)C1)Cc1cc(F)c(F)cc1F [Sitagliptin, sitagliptin]
change of HbA1c from baseline compared to placebo (T2DM patients): -0.788

C=C1CC[C@H](O)C/C1=C/C=C1\CCC[C@]2(C)[C@@H]([C@H](C)CCCC(C)C)CC[C@@H]12 [VD, cholecalciferol]
patients with DKD at the beginning whose DKD stage improved (patients with T1DM; 8/13 patients, 12 weeks): 62%
DKD prevalence at the end of the study (patients with T1DM; cholecalciferol 4000 or 10000 IU/day for 12 weeks, n = 22, 68% before): 32%

COc1ccc(CCN(C)CCCC(C#N)(c2ccc(OC)c(OC)c2)C(C)C)cc1OC (centres unmarked) [Verapamil]
response of hypoglycemia episodes (patient with T2DM [1]): good response

CCN(CC)CC#CCOC(=O)C(O)(c1ccccc1)C1CCCCC1 (centres unmarked) [oxybutynin]
response of gustatory sweating (patient with T2DM [5]): excellent response as early as week 1
side effect (patient with T2DM [5]): mild side effect of xerostomia

N#C[C@@H]1CCCN1C(=O)CNC12CC3CC(CC(O)(C3)C1)C2 [vildagliptin]
change of HbA1c from baseline compared to placebo (T2DM patients): −0.60
right ventricular systolic pressure (RVSP) (patient with DM2 and PAH; 50 mg 2×/day, 6 months after its use, 45 mmHg before): 38 mmHg
fasting glycemia (patient with DM2 and PAH; 6 months after its use): 111 mg/dL
A1c (patient with DM2 and PAH; 6 months after its use, without episodes of hypoglycemia): 6.0%
A1c (patient with DM2 and PAH; January/2017): 6.5%
fasting glycemia (patient with DM2 and PAH; January/2017): 112 mg/dL
RVSP (patient with DM2 and PAH; January/2017, 3 years of follow up): 31 mmHg

C=C1CC[C@H](O)C/C1=C/C=C1\CCC[C@]2(C)[C@@H]([C@H](C)/C=C/[C@H](C)C(C)C)CC[C@@H]12 [vitamin D]
hydroperoxides levels vs placebo group (participants with T2DM; 50.000 U/week, 90 days, p = 0.008): significant reduction
FOX levels vs placebo group (participants with T2DM; 50.000 U/week, 90 days, p = 0.08): trend to decrease
AOPP vs placebo group (participants with T2DM; one capsule/week 50.000 U for 90 days, plasma, p = 0.05): significant reduction

Ipilimumab
endocrinological side effects ([6]; four cycles, adjuvant treatment, about 3 weeks after the last cycle): hypophysitis and pancreatitis, in addition to secondary diabetes
hyperglycemia, levels ([6]; requiring insulinization): above 400 mg/dL

Metreleptin: a recombinant leptin analog
HbA1C (patient with BSCL; 3 months of Metreleptin 5 mg/day with Metformin, […] before): 5%
TGO (patient with BSCL; after 3 months): 42 U/L
TGP (patient with BSCL; after 3 months): 32 U/L
